We go through 1 sequence from article PMC5347165, “Killing of Staphylococcus aureus and Salmonella enteritidis and neutralization of lipopolysaccharide by 17-residue bovine lactoferricins: improved activity of Trp/Ala-containing molecules” (Scientific Reports, 2017).

Assay [1] relates to S. aureus ATCC25923. The assay can be described thus: Outer membrane permeabilization, NPN uptake. The class given is cell-based, Staphylococcus aureus. The note with it: 1×, 2× or 4 × MIC; HEPES buffer pH 7.2. The procedure: The effects of Lfcin4 and Lfcin5 on the outer membrane of S. aureus ATCC25923 and S. enteritidis CVCC3377 were determined by measuring the uptake of NPN[44][45]. Mid-log phase cells were washed with sterile normal saline three times and suspended in 5 mM HEPES buffer (pH 7.2, containing 5 mM glucose) to an OD at 600 nm of 0.5. […] The relative fluorescence intensity was measured using an Infinite M200 PRO plate reader. The excitation and emission wavelengths were set at 328 and 438 nm, respectively. Treatment with PBS severed as a negative control, and treatment with ampicillin or colistin was used as a positive control.

Assay [2] concerns S. enteritidis CVCC3377. Description: Inner membrane permeabilization, PI staining by flow cytometry. The class given is cell-based, Salmonella enteritidis. Conditions: 1 × MIC, 37 °C, untreated 0.76%. The procedure:
The permeabilization of the inner membrane was performed according to a previous report by Li et al. with slight modifications. […] Bacterial cells were then washed twice with PBS, fixed with 50 μg/ml PI and analyzed using a BD FACS Calibur Flow Cytometer (Franklin Lakes, New Jersey, USA). Data were analyzed using CellQuest Pro software (BD, USA).
Background: In flow cytometry, cells or beads pass a laser one at a time.

The subject of assay [3] is S. aureus ATCC25923. The class given is cell-based, Staphylococcus aureus. Conditions: microtiter broth dilution, 10^5 CFU/ml, 16‒18 h at 37 °C; representative of three independent experiments. The method, then: (§1) The MIC values of LfcinB17-33 derivatives against bacteria were determined by the microtiter broth dilution method. Briefly, 10 μl of serially diluted aliquots of peptides were added to each well of 96-well microtiter plates, followed by the addition of 90 μl exponential phase bacteria (10^5 CFU/ml) and incubated for 16‒18 h at 37 °C.

Assay [4] relates to Escherichia coli CVCC195. The class given is cell-based. The note with it: microtiter broth dilution, 10^5 CFU/ml, 16‒18 h at 37 °C; representative of three independent experiments. The procedure:
as §1
In general terms: In broth dilution the organism is exposed to a series of concentrations in liquid medium.

Assay [5] relates to S. pullorum CVCC1802. The class given is cell-based. The note with it: microtiter broth dilution, 10^5 CFU/ml, 16‒18 h at 37 °C; representative of three independent experiments. The method, then:
as §1

Assay [6] relates to S. pullorum CVCC1789. The class given is cell-based. The note with it: microtiter broth dilution, 10^5 CFU/ml, 16‒18 h at 37 °C; representative of three independent experiments. The procedure:
as §1

Assay [7] concerns Bacillus subtilis ATCC6633. The class given is cell-based. The note with it: microtiter broth dilution, 10^5 CFU/ml, 16‒18 h at 37 °C; representative of three independent experiments. The method, then:
as §1

Assay [8] concerns Pseudomonas aeruginosa CICC10419. The class given is cell-based. The note with it: microtiter broth dilution, 10^5 CFU/ml, 16‒18 h at 37 °C; representative of three independent experiments. The method, then: as §1
In assay [9] the test system is Enterococcus faecium CMCC1.2136. The class given is cell-based. The note with it: microtiter broth dilution, 10^5 CFU/ml, 16‒18 h at 37 °C; representative of three independent experiments. The procedure:
as §1

Assay [10] has as its system Salmonella typhimurium ATCC14028. The class given is cell-based. Conditions: microtiter broth dilution, 10^5 CFU/ml, 16‒18 h at 37 °C; representative of three independent experiments. The method, then:
as §1

In assay [11] the test system is Streptococcus suis CVCC606. The class given is cell-based. Conditions: microtiter broth dilution, 10^5 CFU/ml, 16‒18 h at 37 °C; representative of three independent experiments. The method, then: as §1
In assay [12] the test system is S. choleraesuis CVCC503. The class given is cell-based. Conditions: microtiter broth dilution, 10^5 CFU/ml, 16‒18 h at 37 °C; representative of three independent experiments. The method, then: as §1
Assay [13] relates to Staphylococcus aureus ATCC43300. The class given is cell-based. Conditions: microtiter broth dilution, 10^5 CFU/ml, 16‒18 h at 37 °C; representative of three independent experiments. The procedure:
as §1

The subject of assay [14] is genomic DNA from S. aureus ATCC25923. Description: Gel retardation (EMSA) of genomic DNA. The class given is binding, Staphylococcus aureus. The note with it: 0.7% agarose gel, 10 min 37 °C; ratios tested 0, 0.5, 1, 2.5, 5, 10 (w/w). The method, then: (§2) Genomic DNA was extracted from S. aureus ATCC25923, E. coli O157 and S. enteritidis CVCC3377 using a TIANamp Bacteria DNA Kit (TIANGEN Biotech Co., Ltd., Beijing). The gel retardation experiment was performed by mixing the bacterial DNA with different concentrations of Lfcin4 or Lfcin5 in 20 μl binding buffer (10 mM Tris-HCl, pH 8.0, 5% glycerol, 1 mM dithiothreitol, 1 mM EDTA, 20 mM KCl, and 50 μg/ml bovine serum albumin)[41]. The ratios of peptide to DNA were 0, 0.5, 1, 2.5, 5.0, and 10.0 (w/w). The mixtures were incubated for 10 min at 37 °C and then subjected to electrophoresis on a 0.7% agarose gel.
In general terms: Mobility shift assays separate free from complexed probe on a gel.

Assay [15] concerns genomic DNA from E. coli O157. The assay can be described thus: Gel retardation (EMSA) of genomic DNA. The class given is binding, Escherichia coli. The note with it: 0.7% agarose gel, 10 min 37 °C; ratios tested 0, 0.5, 1, 2.5, 5, 10 (w/w). The method, then:
as §2

Assay [16] relates to P. aeruginosa CICC21630. The class given is cell-based, Pseudomonas aeruginosa. The note with it: microtiter broth dilution, 10^5 CFU/ml, 16‒18 h at 37 °C; representative of three independent experiments. The method, then: as §1
In assay [17] the test system is S. enteritidis CVCC3377. Description: Cell surface hydrophobicity, hexadecane partitioning. The class given is cell-based, Salmonella enteritidis. The note with it: peptide 1×, 2× or 4× MIC, 10 min 37 °C, increased from 9.43% (untreated) to this value, mean, n = 3. The procedure:
(§3) The effects of AMPs on the cell surface hydrophobicity of S. aureus ATCC25923 and S. enteritidis CVCC3377 were measured using the hexadecane partitioning method. Cells were grown to stationary phase in Mueller-Hinton broth at 37 °C, harvested by centrifugation at 5000 rpm for 4 min, washed twice with sterile normal saline, and suspended in 0.1 M KNO3 (pH 6.2) to an OD600 nm of 0.4. […] Sterile normal saline was used as a negative control, and the optical density at 600 nm was measured as OD0. Subsequently, a 1.2-ml cell suspension was mixed with 0.2 ml of hexadecane by vortexing for 1 min, and then, the mixture was incubated for 15 min. The OD600 nm value of the aqueous phase was determined as OD1. The hydrophobicity percentages were calculated by the following equation: hydrophobicity (%) = (1 − OD1/OD0) × 100%. All experiments were repeated three times.

In assay [18] the test system is genomic DNA from S. enteritidis CVCC3377. The assay can be described thus: Gel retardation (EMSA) of genomic DNA. The class given is binding, Salmonella enteritidis. The note with it: 0.7% agarose gel, 10 min 37 °C; ratios tested 0, 0.5, 1, 2.5, 5, 10 (w/w). The procedure: as §2
Assay [19] deals with S. enteritidis CVCC3377. The class given is cell-based, Salmonella enteritidis. Conditions: microtiter broth dilution, 10^5 CFU/ml, 16‒18 h at 37 °C; representative of three independent experiments. The method, then:
as §1

Assay [20] relates to S. aureus ATCC25923. Description: Cell surface hydrophobicity, hexadecane partitioning. The note with it: peptide 1×, 2× or 4× MIC, 10 min 37 °C, increased from 5.27% (untreated) to this value, mean, n = 3. The class given is cell-based, Staphylococcus aureus. The procedure:
as §3

Where “and” joins values, the source holds several entries; their conditions need not be identical. Equal values may be shown once.

As to “FKAWRWAWRMKKLAAPS [Lfcin4, 17-residue LfcinB17-31 derivative, Trp/Ala-containing]”, the “time to permeabilization of the outer membrane (NPN fluorescence)” value in assay [1] is listed as at most 1 min. Also, the PI-positive cells in assay [2] (30 min) came to 2.94%; in [2] (120 min), 18.90%. The MIC (commonly the lowest concentration found to suppress growth) in assay [3] was 3.66 μM and 8 μg/ml; in assay [4], 30 μM and 64 μg/ml; in assay [5] it was >58 μM and >128 μg/ml; in [6], >58 μM and >128 μg/ml; in assay [7], 15 μM and 32 μg/ml; in assay [8], >58 μM and >128 μg/ml. Besides, the MIC is 7.3 μM and 16 μg/ml in assay [9]; 58 μM and 128 μg/ml in [10]; 58 μM and 128 μg/ml in assay [11]; 58 μM and 128 μg/ml in assay [12]; 29 μM and 64 μg/ml in assay [13]; >58 μM and >128 μg/ml in assay [16]. In assay [19], the MIC was 1.8 μM and 4 μg/ml. Moreover, the results for the “peptide:DNA mass ratio at which migration of genomic DNA is impaired” value in assay [14], in assay [15] and in assay [18] were “over 1.0 mass ratio (peptide:DNA)”, “over 1.0 mass ratio (peptide:DNA)” and “greater than 2.5 mass ratio (peptide:DNA)”, respectively. The figures for the cell surface hydrophobicity in [17] and in assay [20] were 16.45% and 18.87%, respectively.
